{
  "source": "patent US20080182125A1",
  "about": "“Cationic latex as a carrier for bioactive ingredients and its use in wallboard manufacture” (priority 2006, published 2008)",
  "key": {"fungal species [1]": {"system": "fungal species", "assay": "30-III fungal test on 1\"X1\" chip of dried latex, 7 days", "assay_type": "cell-based", "settings": "7 day incubation, FIG. 5", "from_the_text": "FIG. 5 is a graph showing the results of a 30-III fungal test, based on making a 1″X1″ chip of the dried latex, inoculating the fungal species directly on to the sample, and then observing its growth after 7 days.\nThe 30-III fungal test was based on making a 1″X1″ chip of the dried latex and inoculating the fungal species directly on to the sample and then observing its growth after 7 days."}, "[2]": {"assay": "Stability of additive under polymerization conditions", "assay_type": "physicochemical", "settings": "incorporated in relatively high amounts", "from_the_text": "Ideally, the materials are substantially unreactive during the polymerization conditions, so they are not degraded during polymerization. In some embodiments, low levels of additive might be observed, whether due to degradation, or difficulty in extraction from the polymer latex. In any case, retention of the additive in the latex leads to retention of antifungal properties in the finished paper.\nThe polymerization temperature was investigated as a potential contributor to degradation, and it was kept as low as was feasible (typically <70° C.). The samples were stripped at the end of polymerization to the desired solids content."}, "[3]": {"assay": "Solubility of additives used in polymerization", "assay_type": "physicochemical"}, "fungal species [4]": {"system": "fungal species", "assay": "ASTM D-3273 second round test of coated paper, 28 days, spores in humidity chamber", "assay_type": "cell-based", "settings": "increased coating thickness, FIG. 6", "method": "FIG. 6 is a graph showing the results of a second round of testing of coated paper samples, tested according to ASTM D-3273 over a period of 28 days. In this study, the fungal species were not directly inoculated on the surface, but rather, were maintained in the humidity chamber as spores that would then land on the surface of the coated paper.\nA second round of testing was performed using an increased coating thickness to ensure full coverage of the paper surface. The second round of testing of the coated paper samples were tested according to ASTM D-3273. In this study, the duration remained the same (28 days), but the fungal species were not directly inoculated on the surface. Rather, they were maintained in the humidity chamber as spores that would then land on the surface of the coated paper as in a real world example. The results of this study are outlined in FIG. 6."}, "[5]": {"settings": "additives used in polymerization, solubility in monomer or water"}},
  "note": "Where two headings read alike, the source gives them in different places.",
  "data": [
    {"compound": "Cc1ccc(S(=O)(=O)C(I)I)cc1", "note": "[Amical AF, Diiodomethyltoluyl sulfone]", "values": [
      {"measurement": "Fungal inhibition, 30-III test", "setting": "fungal species [1]", "result": "some fungal inhibition"},
      {"measurement": "Degradation during polymerization", "setting": "[2]", "result": "degraded"},
      {"measurement": "Solubility", "setting": "[3]; [5]", "result": "Limited"},
      {"measurement": "Antifungal effectiveness, ASTM D-3273", "setting": "fungal species [4]", "result": "effective"}
    ]},
    {"compound": "CCCC1COC(Cn2cncn2)(c2ccc(Cl)cc2Cl)O1", "note": "(stereo not shown) [Microban PZ, Propiconazole]", "values": [
      {"measurement": "Solubility", "setting": "[3]", "result": "Fairly soluble"}
    ]},
    {"compound": "[Na+].[O-]c1ccccc1-c1ccccc1", "note": "[Microban P2, Sodium orthophenyl phenate]", "values": [
      {"measurement": "Solubility", "setting": "[3]; [5]", "result": "Solid. Water"}
    ]},
    {"compound": "CC(C)(C)C(O)(CCc1ccc(Cl)cc1)Cn1cncn1", "note": "(stereo not shown) [Microban TZ, Tebuconazole]", "values": [
      {"measurement": "Solubility", "setting": "[3]; [5]", "result": "Fairly soluble"}
    ]},
    {"compound": "Zinc pyrithione [Microban Z01]", "values": [
      {"measurement": "Fungal inhibition, 30-III test", "setting": "fungal species [1]", "result": "performed well"},
      {"measurement": "Antifungal effectiveness, ASTM D-3273", "setting": "fungal species [4]", "result": "did not perform well"}
    ]},
    {"compound": "Oc1cc(Cl)ccc1Oc1ccc(Cl)cc1Cl", "note": "[Triclosan, Chlorodiphenyl ether]", "values": [
      {"measurement": "Solubility", "setting": "[3]; [5]", "result": "Solid. Fairly"}
    ]}
  ]
}
